Here are results for 29 compounds from patent US20230303552A1, “ARYLSULFONYL DERIVATIVES AND THEIR USE AS MUSCARINIC ACETYLCHOLINE RECEPTOR M5 INHIBITORS” (Vanderbilt University, priority 2020, published 2023).

Each structure is given as a SMILES string.

The target in the test is T1, human M5 receptors (hM5) (Homo sapiens, UniProt P08912).
T1 construct: expressed in transfected cells
T1 sequence (P08912 1-532): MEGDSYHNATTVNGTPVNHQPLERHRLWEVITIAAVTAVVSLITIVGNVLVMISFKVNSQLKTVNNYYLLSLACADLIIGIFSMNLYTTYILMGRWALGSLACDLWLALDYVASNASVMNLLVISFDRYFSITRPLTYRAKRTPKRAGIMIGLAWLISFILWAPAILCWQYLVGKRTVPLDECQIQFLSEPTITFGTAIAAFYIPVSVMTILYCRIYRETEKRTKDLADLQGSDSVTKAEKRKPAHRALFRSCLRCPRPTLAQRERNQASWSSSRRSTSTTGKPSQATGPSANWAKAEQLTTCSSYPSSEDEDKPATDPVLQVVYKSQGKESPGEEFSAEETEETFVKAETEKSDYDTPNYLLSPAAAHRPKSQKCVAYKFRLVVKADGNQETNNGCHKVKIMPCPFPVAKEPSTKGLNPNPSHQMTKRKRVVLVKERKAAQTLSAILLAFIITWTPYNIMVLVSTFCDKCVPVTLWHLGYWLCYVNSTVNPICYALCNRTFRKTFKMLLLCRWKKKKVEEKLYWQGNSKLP
The experiment in a line: Cell-based functional calcium mobilization assay of mAChR M5 activity (inhibition of EC80 acetylcholine response) in CHO cells. The note with it: CHO cells stably expressing hM5; for IC50: calcium flux (Fluo-4), EC80 acetylcholine addition; for EC80 MIN: minimum of EC80 acetylcholine response, normalized to maximum acetylcholine response. The essentials: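 CHO cells stably expressing human M5, loaded with Fluo-4 AM in HBSS/20 mM HEPES/2.5 mM probenecid pH 7.4. Compound added 140 s before acetylcholine EC20, then EC80 added 125 s later. Calcium flux normalized to maximal acetylcholine response; IC50 from ten-point curves in the EC80 window.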

What is called IC50 is the midpoint of a concentration-inhibition curve. With `O=C(Nc1ccc2scnc2c1)C1CN(S(=O)(=O)c2ccc3c(c2)CCO3)C1` [Compound 16, N-(benzo[d]thiazol-5-yl)-1-((2,3-dihydrobenzofuran-5-yl)sulfonyl)azetidine-3-carboxamide], the concentration for half-maximal inhibition (IC50) worked out at 1780 nM and the “EC80 MIN” value is on record as 2%.

For the compound `Cc1noc(C)c1S(=O)(=O)N1CCC(C(=O)Nc2ccc3scnc3c2)CC1` [Compound 17, N-(benzo[d]thiazol-5-yl)-1-((3.5-dimcthylisoxazol-4-yl)sulfonyl)piperidine-4-carboxamide], the IC50 is 766 nM and the “EC80 MIN” value amounted to 3%.

Regarding `O=C(Nc1ccc2scnc2c1)C1CCN(S(=O)(=O)c2cccnc2)CC1` [Compound 18, N-(benzo[d]thiazol-5-yl)-1-(pyridin-3-ylsulfonyl)piperidine-4-carboxamide], the 50% inhibitory concentration (IC50) stood at 56 nM and the “EC80 MIN” value was 2%.

For the compound `Cc1nc(C(F)(F)F)c(S(=O)(=O)N2CCC(C(=O)Nc3ccc4scnc4c3)CC2)s1` [Compound 19, N-(benzo[d]thiazol-5-yl)-1-((2-methyl-4-(trifluoromcthyl)thiazol-5-yl)sulfonyl)piperidine-4-carboxamide], the IC50 stood at 3130 nM and the “EC80 MIN” value amounted to 19%.

As for `Cn1cnc(S(=O)(=O)N2CCC(C(=O)Nc3ccc4scnc4c3)CC2)c1` [Compound 20, N-(benzo[d]thiazol-5-yl)-1-((1-methyl-1H-imidazol-4-yl)sulfonyl)piperidine-4-carboxamide], the IC50 is more than 10000 nM and the “EC80 MIN” value is listed as 49%.

Take `O=C(Nc1ccc2scnc2c1)C1CCN(S(=O)(=O)c2cccc3nsnc23)CC1` [Compound 21, 1-(benzo[c][1,2,5]thiadiazol-4-ylsulfonyl)-N-(benzo[d]thiazol-5-yl)piperidine-4-carboxamide]: the IC50 came to 434 nM and the “EC80 MIN” value is listed as 3%.

For the compound `CC1(C(=O)Nc2ccc3scnc3c2)CN(S(=O)(=O)c2ccc3c(c2)CCO3)C1` [Compound 22, N-(benzo[d]thiazol-5-yl)-1-((2,3-dihydrobenzofuran-5-yl)sulfonyl)-3-methylazetidine-3-carboxamide], the concentration for half-maximal inhibition (IC50) was more than 10000 nM and the “EC80 MIN” value was 43%.

As to `O=C(Nc1ccc2scnc2c1)[C@@H]1CCN(S(=O)(=O)c2ccc3c(c2)CCO3)C1` [Compound 24, (R)-N-(benzo[d]thiazol-5-yl)-1-((2,3-dihydrobenzofuran-5-yl)sulfonyl)pyrrolidine-3-carboxamide], the IC50 was 32 nM and the “EC80 MIN” value was 2%.

Regarding `Cn1cnc2cc(S(=O)(=O)N3CCC(C(=O)Nc4ccc5scnc5c4)CC3)ccc21` [Compound 27, N-(benzo[d]thiazol-5-yl)-1-((1-methyl-1H-benzo[d]imidazol-5-yl)sulfonyl)piperidine-4-carboxamide], the half-maximal inhibitory concentration (IC50) was more than 10000 nM and the “EC80 MIN” value worked out at 42%.

Regarding `Cn1nnc2cc(S(=O)(=O)N3CCC(C(=O)Nc4ccc5scnc5c4)CC3)ccc21` [Compound 28, N-(benzo[d]thiazol-5-yl)-1-((1-methyl-1H-benzo[d][1,2,3]triazol-5-yl)sulfonyl)piperidine-4-carboxamide], the concentration for half-maximal inhibition (IC50) was more than 10000 nM and the “EC80 MIN” value was determined as 9%.

As to `O=C(Nc1ccc2scnc2c1)C1CCN(S(=O)(=O)c2ccc3c(c2)OC(F)(F)O3)CC1` [Compound 29, N-(benzo[d]thiazol-5-yl)-1-((2.2-difluorobenzo[d][1,3]dioxol-5-yl)sulfonyl)piperidine-4-carboxamide], the 50% inhibitory concentration (IC50) is more than 10000 nM and the “EC80 MIN” value was 60%.

For the compound `O=C(Nc1ccc2scnc2c1)C1CCN(S(=O)(=O)c2cccc(OC(F)(F)F)c2)CC1` [Compound 30, N-(benzo[d]thiazol-5-yl)-1-((3-(trifluoromethoxy)phenyl)sulfonyl)piperidine-4-carboxamide], the half-maximal inhibitory concentration (IC50) is more than 10000 nM and the “EC80 MIN” value was 57%.

For the compound `Cc1cccc(S(=O)(=O)N2CCC(C(=O)Nc3ccc4scnc4c3)CC2)c1` [Compound 31, N-(benzo[d]thiazol-5-yl)-1-(m-tolylsulfonyl)piperidine-4-carboxamide], the half-maximal inhibitory concentration (IC50) stood at 9160 nM and the “EC80 MIN” value came to 5%.

For `O=C(Nc1ccc2scnc2c1)C1CCN(S(=O)(=O)c2ccc(F)c(F)c2)CC1` [Compound 32, N-(benzo[d]thiazol-5-yl)-1-((3,4-difluorophenyl)sulfonyl)pip eridine-4-carboxamide], the IC50 amounted to 1930 nM and the “EC80 MIN” value was 3%.

In the case of `Cc1ccccc1S(=O)(=O)N1CCC(C(=O)Nc2ccc3scnc3c2)CC1` [Compound 33, N-(benzo[d]thiazol-5-yl)-1-(o-tolylsulfonyl)piperidine-4-carboxamide], the concentration for half-maximal inhibition (IC50) was more than 10000 nM and the “EC80 MIN” value is on record as 6%.

Regarding `COc1cccc(S(=O)(=O)N2CCC(C(=O)Nc3ccc4scnc4c3)CC2)c1` [Compound 34, N-(benzo[d]thiazol-5-yl)-1-((3-methoxyphenyl)sulfonyl)pi pendine-4-carboxamide], the IC50 was more than 10000 nM and the “EC80 MIN” value is listed as 18%.

On to `Cc1cc(S(=O)(=O)N2CCC(C(=O)Nc3ccc4scnc4c3)CC2)cnc1Cl` [Compound 35, N-(benzo[d]thiazol-5-yl)-1-((6-chloro-5-methylpyridin-3-yl)sulfonyl)piperidine-4-carboxamide], for which the IC50 amounted to 83 nM and the “EC80 MIN” value came out at 3%.

For the compound `Cn1ncc2cc(S(=O)(=O)N3CCC(C(=O)Nc4ccc5scnc5c4)CC3)cnc21` [Compound 36, N-(benzo[d]thiazol-5-yl)-1-((1-methyl-1H-pyrazolo[3,4-b]pyridin-5-yl)sulfonyl)piperidine-4-carboxamide], the IC50 was more than 10000 nM and the “EC80 MIN” value turned out to be 40%.

For the compound `Cc1noc2ncc(S(=O)(=O)N3CCC(C(=O)Nc4ccc5scnc5c4)CC3)cc12` [Compound 37, N-(benzo[d]thiazol-5-yl)-1-((3-methylisoxazolo[5,4-b]pyridin-5-yl)sulfonyl)piperidine-4-carboxamide], the IC50 was more than 10000 nM and the “EC80 MIN” value is listed as 60%.

Regarding `O=C(Nc1ccc2scnc2c1)[C@@H]1CCN(S(=O)(=O)c2cccnc2)C1` [Compound 39, (R)-N-(benzo[d]thiazol-5-yl)-1-(pyridin-3-ylsulfonyl)pyrrolidine-3-carboxamide], the 50% inhibitory concentration (IC50) was more than 10000 nM and the “EC80 MIN” value was determined as 27%.

Regarding `O=C(Nc1ccc2scnc2c1)C1CCN(S(=O)(=O)c2cc3c(cc2F)OCC3)CC1` [Compound 41, N-(benzo[d]thiazol-5-yl)-1-((6-fluoro-2,3-dihydrobenzofuran-5-yl)sulfonyl)piperidine-4-carboxamide], the IC50 turned out to be 46 nM and the “EC80 MIN” value is recorded as 2%.

On to `O=C(Nc1ccc2scnc2c1)[C@@H]1CCN(S(=O)(=O)c2cc3c(cc2F)OCC3)C1` [Compound 42, (R)-N-(benz[d]thiazol-5-yl)-1-((6-fluoro-2,3-dihydrobenzofuran-5-yl)sulfonyl)pyrrolidine-3-carboxamide], for which the IC50 amounted to 39 nM and the “EC80 MIN” value amounted to 2%.

Take `O=C(Nc1ccc2scnc2c1)C1CCN(S(=O)(=O)c2cccc3ncccc23)CC1` [Compound 46, N-(benzo[d]thiazol-5-yl)-1-(quinolin-5-ylsulfonyl)piperidine-4-carboxamide]: the IC50 is more than 10000 nM and the “EC80 MIN” value amounted to 37%.

On to `Cc1nc2ccc(S(=O)(=O)N3CCC(C(=O)Nc4ccc5scnc5c4)CC3)cc2s1` [Compound 47], for which the 50% inhibitory concentration (IC50) is more than 10000 nM and the “EC80 MIN” value is given as 47%.

Regarding `O=C(Nc1ccc2scnc2c1)C1CCN(S(=O)(=O)c2ccc3c(c2)OCCO3)CC1` [Compound 48, N-(benzo[d]thiazol-5-yl)-1-((2.3-dihydrobenzo[b][1,4]dioxin-6-yl)sulfonyl)piperidine-4-carboxamide], the IC50 came to 1790 nM and the “EC80 MIN” value is 5%.

For `Cc1cc2c(cc1S(=O)(=O)N1CCC(C(=O)Nc3ccc4scnc4c3)CC1)OCO2` [Compound 49, N-(benzo[d]thiazol-5-yl)-1-((6-methylbenzo[d][1,3]dioxol-5-yl)sulfonyl)pipcridinc-4-carboxamide], the IC50 is more than 10000 nM and the “EC80 MIN” value was 8%.

Consider `O=C(Nc1ccc2scnc2c1)C1CCN(S(=O)(=O)c2ccc3c(c2)CCCO3)CC1` [Compound 50, N-(benzo[d]thiazol-5-yl)-1-(chroman-6-ylsulfonyl)pipcridinc-4-carboxamide], for which the IC50 worked out at 1850 nM and the “EC80 MIN” value came out at 4%.

Turning to `N#Cc1cccc(S(=O)(=O)N2CCC(C(=O)Nc3ccc4scnc4c3)CC2)c1` [Compound 51, N-(benzo[d]thiazol-5-yl)-1-((3-cyanophenyl)sulfonyl)piperi dine4-carboxamide], the IC50 was 3530 nM and the “EC80 MIN” value is 38%.

`COc1ccccc1S(=O)(=O)N1CCC(C(=O)Nc2ccc3scnc3c2)CC1` [Compound 52, N-(benzo[d]thiazol-5-yl)-1-((2-methoxyphenyl)sulfonyl)pi peridine-4-carboxamide]: the IC50 was more than 10000 nM and the “EC80 MIN” value is recorded as 24%.
